Patent US20010047090A1, “VANILREP1 polynucleotides and VANILREP1 polypeptides” (priority 1998, published 2001)

Legend:
[1] = biological target: T1, VANILREP1 (Homo sapiens, UniProt Q8NER1, K571I/M315I/M572C); assay: Two-electrode voltage-clamp recordings in Xenopus laevis oocytes injected with VANILREP1 cDNA; assay type: cell-based
T1 construct: expressed in transfected cells; host or cells: Xenopus laevis oocytes (nuclear injection of cDNA)
Experimental: (§1) Xenopus laevis oocyte removal and dissociation were performed. Injections of cDNA for […]1 were made into the nuclei of defolliculated oocytes (1.5ng cDNA/oocyte). After injection the oocytes were incubated between 19-22° C. in modified Barth's solution (MBS) plus gentamycin (0.1mg/ml, pH 7.4) and used for electrophysiological recordings within 2-4 days.
(§2) For electrophysiological recordings oocytes were placed in a recording chamber and continuously perfused with a solution containing in mM: NaCl 88, KCI 1, NaHCO3 2.4, HEPES 15, MgCI2 1, BaCI2 0.1. (14 ml min^−1). Solution was applied using large bore tubing (internal diameter 1.5mm) which facilitated rapid solution exchange half-time 350 -1000 ms). Oocytes were held under voltage clamp at −60mV using the two-electrode voltage-clamp technique. Electrodes were low resistance (0.5-3 MΩ) and were filled with 3 M KCI.
(§3) Currents were evoked in response to application of capsaicin applied through the perfusion system until the maximum current amplitude was reached.

[2] = biological target: T2, VANILREP1 (Homo sapiens, UniProt Q8NER1); assay: as above; assay type: cell-based; conditions: oocytes expressing VANILREP1, held at −60mV; capsaicin over a range of concentrations; FIG. 1
T2 construct: expressed in transfected cells; host or cells: Xenopus laevis oocytes (nuclear injection of cDNA)
Experimental: as §1, §2, §3

T1 sequence (Q8NER1 whole entry M315I/K571I/M572C): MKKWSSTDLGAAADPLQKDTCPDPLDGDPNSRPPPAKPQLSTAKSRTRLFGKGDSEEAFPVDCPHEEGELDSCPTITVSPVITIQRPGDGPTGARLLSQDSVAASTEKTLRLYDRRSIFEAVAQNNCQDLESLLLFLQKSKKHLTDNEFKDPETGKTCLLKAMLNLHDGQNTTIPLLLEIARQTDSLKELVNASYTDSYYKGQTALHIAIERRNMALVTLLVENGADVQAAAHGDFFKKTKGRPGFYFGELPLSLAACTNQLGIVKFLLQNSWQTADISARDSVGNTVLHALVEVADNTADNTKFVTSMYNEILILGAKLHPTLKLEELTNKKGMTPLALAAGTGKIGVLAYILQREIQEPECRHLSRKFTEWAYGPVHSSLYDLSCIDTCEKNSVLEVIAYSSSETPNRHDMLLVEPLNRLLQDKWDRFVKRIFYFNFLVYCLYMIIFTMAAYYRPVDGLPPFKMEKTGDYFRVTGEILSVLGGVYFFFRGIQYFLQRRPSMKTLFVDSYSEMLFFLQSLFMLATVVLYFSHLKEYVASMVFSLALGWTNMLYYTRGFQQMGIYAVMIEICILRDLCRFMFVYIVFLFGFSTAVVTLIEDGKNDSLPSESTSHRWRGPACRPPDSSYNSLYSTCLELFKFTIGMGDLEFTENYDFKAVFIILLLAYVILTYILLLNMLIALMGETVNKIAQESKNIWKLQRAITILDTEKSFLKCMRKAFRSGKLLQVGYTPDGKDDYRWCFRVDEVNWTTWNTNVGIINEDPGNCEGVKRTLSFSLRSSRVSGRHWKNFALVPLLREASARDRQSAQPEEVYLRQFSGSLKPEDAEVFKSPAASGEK
T2 sequence (Q8NER1 whole entry M315I/K571I/M572C): as above

inhibition of the capsaicin evoked response ([1]; capsazepine 10uM against capsaicin 1uM, oocytes expressing VANILREP1, FIG. 2)	reversibility of the inhibition of the capsaicin evoked response ([1]; capsazepine 10uM, capsaicin 1uM, extended washing)	currents evoked in response to application of capsaicin [2]	Compound
inhibition	reversible with extended washing		Oc1cc2c(cc1O)CN(C(=S)NCCc1ccc(Cl)cc1)CCC2 [capsazepine]
		currents evoked	COc1cc(CNC(=O)CCCC/C=C/C(C)C)ccc1O [capsaicin]
